Reference: patent US20230279025A1, “KRAS G12D INHIBITORS” (Mirati Therapeutics, Inc., priority 2020, published 2023)

Biological target: KRas G12D (Homo sapiens (Human), UniProt P01116, G12D)
Assay: KRas G12D Binding Assay (TR-FRET displacement of Cy5 labelled tracer)
Details: GDP-loaded KRAS G12D (amino acids 1:169), 60 minute incubation at 22° C.
Protocol: After a 60 minute incubation at 22° C., the reaction was measured using a PerkinElmer EnVision multimode plate reader via TR-FRET dual wavelength detection, and the percent of control (POC) calculated using a ratiometric emission factor. […] The POC values were fit to a 4-parameter logistic curve and the IC50 value was determined as the concentration where the curve crosses 50 POC.
ND stands for “not determined.”

Sequence of KRas G12D (P01116 other isoform, or with tags, fused parts or gaps G12D): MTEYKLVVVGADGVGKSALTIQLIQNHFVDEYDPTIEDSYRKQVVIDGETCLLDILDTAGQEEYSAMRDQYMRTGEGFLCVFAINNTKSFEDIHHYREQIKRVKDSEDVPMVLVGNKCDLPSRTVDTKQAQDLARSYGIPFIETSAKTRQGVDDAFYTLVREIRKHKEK

Row | SMILES | IC50
1 | C[C@@H]1C[C@@H]1c1ccccc1-c1ncc2c(N3C[C@H]4CC[C@@H](C3)N4)nc(OCC34CCCN3CCC4)nc2c1F [Example 286, 4-((1R,5S)-3,8-diazabicyclo[3.2.1]octan-3-yl)-8-fluoro-2-((hexahydro-1H-pyrrolizin-7a-yl)methoxy)-7-(2-((S,2R)-2-methylcyclopropyl)phenyl)pyrido[4,3-d]pyrimidine] | 17.2 nM
2 | CCc1c(Cl)cccc1-c1ncc2c(N3C[C@H]4CC[C@@H](C3)N4)nc(OCC34CCCN3CCC4)nc2c1F [Example 312, 4-((1R,5S)-3,8-diazabicyclo[3.2.1]octan-3-yl)-7-(3-chloro-2-ethylphenyl)-8-fluoro-2-((hexahydro-1H-pyrrolizin-7a-yl)methoxy)pyrido[4,3-d]pyrimidine] | 9 nM
3 | Cc1cccc(O)c1-c1ncc2c(N3CC4CCC(C3)N4)nc(OC[C@@]34CCCN3C[C@H](F)C4)nc2c1F (racemic) [Example 377, 2-(4-((1R,5S)-3,8-diazabicyclo[3.2.1]octan-3-yl)-8-fluoro-2-((2-fluorotetrahydro-1H-pyrrolizin-7a(5H)-yl)methoxy)pyrido[4,3-d]pyrimidin-7-yl)-3-methylphenol] | 417 nM
4 | Cc1c(Cl)cc2[nH]ncc2c1-c1ncc2c(N3CC4CCC(C3)N4)nc(OC[C@@]34CCCN3C[C@H](F)C4)nc2c1F (stereo in doubt) [Example 401, 4-((1R,5S)-3,8-diazabicyclo[3.2.1]octan-3-yl)-7-(6-chloro-5-methyl-1H-indazol-4-yl)-8-fluoro-2-((2-fluorotetrahydro-1H-pyrrolizin-7a(5H)-yl)methoxy)pyrido[4,3-d]pyrimidine] | 2.8 nM
5 | CO[C@H]1CN[C@H](COc2nc(N3C[C@H]4CC[C@@H](C3)N4)c3cnc(-c4cccc5cccc(Cl)c45)c(F)c3n2)C1 [Example 351, 4-((1R,5S)-3,8-diazabicyclo[3.2.1]octan-3-yl)-7-(8-chloronaphthalen-1-yl)-8-fluoro-2-(((2S,4R)-4-methoxypyrrolidin-2-yl)methoxy)pyrido[4,3-d]pyrimidine] | 94.8 nM
6 | CN1CCC[C@H]1COc1nc(N2CC3CCC(C(N)=O)(C2)N3)c2cnc(-c3cc(O)cc4ccccc34)c(F)c2n1 (stereo partly drawn) [Example 159, 3-(8-fluoro-7-(3-hydroxynaphthalen-1-yl)-2-(((S)-1-methylpyrrolidin-2-yl)methoxy)pyrido[4,3-d]pyrimidin-4-yl)-3,8-diazabicyclo[3.2.1]octane-1-carboxamide bis(2,2,2-trifluoroacetate)] | 331 nM
7 | CN1C[C@H](NC(=O)c2cccc(S(=O)(=O)F)c2)C[C@H]1COc1nc(N2C[C@H]3CC[C@@H](C2)N3)c2cnc(-c3cccc4cccc(Cl)c34)c(F)c2n1 [Example 211, 3-(((3R,5S)-5-(((4-((1R,5S)-3,8-diazabicyclo[3.2.1]octan-3-yl)-7-(8-chloronaphthalen-1-yl)-8-fluoropyrido[4,3-d]pyrimidin-2-yl)oxy)methyl)-1-methylpyrrolidin-3-yl)carbamoyl)benzenesulfonyl fluoride tris(2,2,2-trifluoroacetate)] | 212 nM
8 | N#CC[C@@H]1C[C@@H]2CN(c3nc(OCC45CCCN4CCC5)nc4c(F)c(-c5cc(O)cc6ccccc56)ncc34)C[C@H]1N2 [Example 338, 2-((1R,5S,6S)-3-(8-fluoro-7-(3-hydroxynaphthalen-1-yl)-2-((tetrahydro-1H-pyrrolizin-7a(5H)-yl)methoxy)pyrido[4,3-d]pyrimidin-4-yl)-3,8-diazabicyclo[3.2.1]octan-6-yl)acetonitrile] | 33.1 nM
9 | CC#Cc1cccc2cccc(-c3ncc4c(N5C[C@H]6CC[C@@H](C5)N6)nc(OCC56CCCN5CCC6)nc4c3F)c12 [Example 195, 4-((1R,5S)-3,8-diazabicyclo[3.2.1]octan-3-yl)-8-fluoro-7-(8-(prop-1-yn-1-yl)naphthalen-1-yl)-2-((tetrahydro-1H-pyrrolizin-7a(5H)-yl)methoxy)pyrido[4,3-d]pyrimidine] | 20.7 nM
10 | C#Cc1c(F)ccc2cc(O)cc(-c3ncc4c(N5C[C@H]6CC[C@@H](C5)N6)nc(OCC56CCCN5CCC6)nc4c3F)c12 [Example 232, 4-(4-((1R,5S)-3,8-diazabicyclo[3.2.1]octan-3-yl)-8-fluoro-2-((tetrahydro-1H-pyrrolizin-7a(5H)-yl)methoxy)pyrido[4,3-d]pyrimidin-7-yl)-5-ethynyl-6-fluoronaphthalen-2-ol] | 0.6 nM
11 | CN1C[C@H](OC(=O)NCCOCc2ccc(O)cc2)C[C@H]1COc1nc(N2C[C@H]3CC[C@@H](C2)N3)c2cnc(-c3cccc4cccc(Cl)c34)c(F)c2n1 [Example 260, (3R,5S)-5-(((4-((1R,5S)-3,8-diazabicyclo[3.2.1]octan-3-yl)-7-(8-chloronaphthalen-1-yl)-8-fluoropyrido[4,3-d]pyrimidin-2-yl)oxy)methyl)-1-methylpyrrolidin-3-yl (2-((4-hydroxybenzyl)oxy)ethyl)carbamate] | 107 nM
12 | O[C@@H]1C[C@@H]2CN(c3nc(OCCc4nccn4CF)nc4c(F)c(-c5cccc6cccc(Cl)c56)ncc34)C[C@H]1N2 [Example 170, (1R,5R,6R)-3-(7-(8-chloronaphthalen-1-yl)-8-fluoro-2-(2-(1-(fluoromethyl)-1H-imidazol-2-yl)ethoxy)pyrido[4,3-d]pyrimidin-4-yl)-3,8-diazabicyclo[3.2.1]octan-6-ol] | 842 nM
13 | COCCO[C@@H]1C[C@@H](COc2nc(N3C[C@H]4CC[C@@H](C3)N4)c3cnc(-c4cccc5cccc(Cl)c45)c(F)c3n2)N(C)C1 [Example 202, 4-((1R,5S)-3,8-diazabicyclo[3.2.1]octan-3-yl)-7-(8-chloronaphthalen-1-yl)-8-fluoro-2-(((2S,4R)-4-(2-methoxyethoxy)-1-methylpyrrolidin-2-yl)methoxy)pyrido[4,3-d]pyrimidine] | 94 nM
14 | Nc1ccc(CCOc2nc(N3C[C@H]4CC[C@@H](C3)N4)c3cnc(-c4cccc5cccc(Cl)c45)c(F)c3n2)cn1 [Example 141, 5-(2-((4-((1R,5S)-3,8-diazabicyclo[3.2.1]octan-3-yl)-7-(8-chloronaphthalen-1-yl)-8-fluoropyrido[4,3-d]pyrimidin-2-yl)oxy)ethyl)pyridin-2-amine] | 891 nM
15 | Oc1cc(-c2ncc3c(N4C[C@H]5CC[C@@H](C4)N5)nc(OC[C@@]45CCCN4C[C@H](F)C5)nc3c2F)c2c(Cl)cccc2c1 [Example 251, 4-(4-((1R,5S)-3,8-diazabicyclo[3.2.1]octan-3-yl)-8-fluoro-2-(((2R,7aS)-2-fluorohexahydro-1H-pyrrolizin-7a-yl)methoxy)pyrido[4,3-d]pyrimidin-7-yl)-5-chloronaphthalen-2-ol] | 0.2 nM
16 | CC(C)c1c(Cl)cccc1-c1ncc2c(N3C[C@H]4CC[C@@H](C3)N4)nc(OCC34CCCN3CCC4)nc2c1F [Example 298, 4-((1R,5S)-3,8-diazabicyclo[3.2.1]octan-3-yl)-7-(3-chloro-2-isopropylphenyl)-8-fluoro-2-((hexahydro-1H-pyrrolizin-7a-yl)methoxy)pyrido[4,3-d]pyrimidine] | 8.3 nM
17 | CCC1(N)CN(c2nc(N3C[C@H]4CC[C@@H](C3)N4)c3cnc(-c4cccc5cccc(Cl)c45)c(F)c3n2)C1 [Example 128, 1-(4-((1R,5S)-3,8-diazabicyclo[3.2.1]octan-3-yl)-7-(8-chloronaphthalen-1-yl)-8-fluoropyrido[4,3-d]pyrimidin-2-yl)-3-ethylazetidin-3-amine] | 501 nM
18 | Nc1nccn1CCOc1nc(N2CC3CCC(C2)N3)c2cnc(-c3cccc4cccc(Cl)c34)c(F)c2n1 [Example 178, 1-[2-[7-(8-chloro-1-naphthyl)-4-(3,8-diazabicyclo[3.2.1]octan-3-yl)-8-fluoro-pyrido[4,3-d]pyrimidin-2-yl]oxyethyl]imidazol-2-amine] | 105 nM
19 | Fc1c(-c2cccc3cccc(Cl)c23)ncc2c(N3C[C@H]4CC[C@@H](C3)N4)nc(OC[C@@H]3CCCO3)nc12 [Example 136, 4-((1R,5S)-3,8-diazabicyclo[3.2.1]octan-3-yl)-7-(8-chloronaphthalen-1-yl)-8-fluoro-2-(((S)-tetrahydrofuran-2-yl)methoxy)pyrido[4,3-d]pyrimidine] | 5150 nM
20 | Oc1cc(-c2ncc3c(N4C[C@H]5CC[C@@H](C4)N5)nc(OCC45CCCN4CCC5)nc3c2F)c2c(Cl)c(F)ccc2c1 [Example 245, 4-(4-((1R,5S)-3,8-diazabicyclo[3.2.1]octan-3-yl)-8-fluoro-2-((hexahydro-1H-pyrrolizin-7a-yl)methoxy)pyrido[4,3-d]pyrimidin-7-yl)-5-chloro-6-fluoronaphthalen-2-ol] | 0.5 nM
21 | Cn1ccc2cccc(-c3ncc4c(N5C[C@H]6CC[C@@H](C5)N6)nc(OCC56CCCN5CCC6)nc4c3F)c21 [Example 446, 4-((1R,5S)-3,8-diazabicyclo[3.2.1]octan-3-yl)-8-fluoro-7-(1-methyl-1H-indol-7-yl)-2-((tetrahydro-1H-pyrrolizin-7a(5H)-yl)methoxy)pyrido[4,3-d]pyrimidine] | 357 nM
22 | Fc1c(-c2cccc3c2OC(F)(F)O3)ncc2c(N3C[C@H]4CC[C@@H](C3)N4)nc(OCC34CCCN3CCC4)nc12 [Example 196, 4-((1R,5S)-3,8-diazabicyclo[3.2.1]octan-3-yl)-7-(2,2-difluorobenzo[d][1,3]dioxol-4-yl)-8-fluoro-2-((tetrahydro-1H-pyrrolizin-7a(5H)-yl)methoxy)pyrido[4,3-d]pyrimidine] | 467 nM
23 | O=Cc1cc(CCOc2nc(N3C[C@H]4CC[C@@H](C3)N4)c3cnc(-c4cccc5cccc(Cl)c45)c(F)c3n2)ccc1O [Example 62, 5-(2-((4-((1R,5S)-3,8-diazabicyclo[3.2.1]octan-3-yl)-7-(8-chloronaphthalen-1-yl)-8-fluoropyrido[4,3-d]pyrimidin-2-yl)oxy)ethyl)-2-hydroxybenzaldehyde] | 8410 nM
24 | CC(C)c1ccccc1-c1ncc2c(N3C[C@H]4CC[C@@H](C3)N4)nc(OCC34CCCN3CCC4)nc2c1F [Example 309, 4-((1R,5S)-3,8-diazabicyclo[3.2.1]octan-3-yl)-8-fluoro-7-(2-isopropylphenyl)-2-((tetrahydro-1H-pyrrolizin-7a(5H)-yl)methoxy)pyrido[4,3-d]pyrimidine] | 205 nM
